Like-named read-outs stand apart in the source and are kept apart here.

The data set can be described thus: Determination of log P values by HPLC on a reverse phase column (C18), EEC-Directive 79/831 Annex V.A8 (Methods A, B, C). The class given is physicochemical. The conditions noted are these: reverse phase C18 HPLC column. On the procedure:
(§1) Note on the determination of the log P values and mass detection: The stated log P values were determined in accordance with EEC-Directive 79/831 Annex V.A8 by HPLC (High Performance Liquid Chromatography) on a reverse phase column (C18). Agilent 1100 LC system; 50*4.6 Zorbax Eclipse Plus C18 1.8 micron; eluent A: acetonitrile (0.1% formic acid); eluent B: water (0.09% formic acid); linear gradient from 10% acetonitrile to 95% acetonitrile in 4.25 mins, then 95% acetonitrile for a further 1.25 mins; oven temperature 55° C.; flow rate: 2.0 mL/min. The mass detection was effected with an Agilend MSD system.
as §1, with “HP1100;” for “Agilent 1100 LC system;”, “(0.08%” for “(0.09%”, “5%” for “10%”, “1.70 min,” for “4.25 mins,”, “1.00 min;” for “1.25 mins;”, “the Micronass ZQ2000 mass detector from Waters.” for “an Agilend MSD system.”
Note on the determination of the log P values and mass detection: The stated log P values were determined in accordance with EEC-Directive 79/831 Annex V.A8 by UPLC (Ultra Performance Liquid Chromatography) on a reverse phase column (C18). HP1100; 50*2.1 Zorbax Eclipse Plus C18 1.8 micron; eluent A: acetonitrile (0.09% formic acid); eluent B: water (0.1% formic acid); linear gradient from 10% A to 95% A in 3.25 min; oven temperature 40° C.; flow rate: 0.8 mL/min. The mass detection was effected with the LCT Premier or SQD mass detector from Waters.

The mark [1] stands for this setting: pH 2.3, intermediates of formula [II], HPLC, reverse phase C18, read-out: LogP (pH 2.3).
[2] abbreviates: pH 2.7, values in the synthesis examples, HPLC, reverse phase C18, read-out: log P (pH 2.7).
Setting [3] is: pH 2.3, intermediates of formula [IV] and [XXXVII], HPLC, reverse phase C18, read-out: LogP (pH 2.3).
[4] abbreviates: pH 2.3, intermediates of formula [VI], HPLC, reverse phase C18, read-out: LogP (pH 2.3).

For `Nc1cc(-c2c(-c3ccc(F)cc3)nn3c2OCCC3)ccn1` [[II-2], 4-[2-(4-fluorophenyl)-6,7-dihydro-5H-pyrazolo[5,1-b][1,3]oxazin-3-yl]pyridin-2-amine], the chromatographic logP is, setting by setting: under setting [1], 0.95; under setting [2], 0.95.
As for `Nc1cc(-c2c(-c3ccc(F)cc3F)nn3c2OCCC3)ccn1` [[II-3], 4-[2-(2,4-difluorophenyl)-6,7-dihydro-5H-pyrazolo[5,1-b][1,3]oxazin-3-yl]pyridin-2-amine], the chromatographic logP reads like this: under setting [1], 1.01; under setting [2], 1.01.
For the compound `C[Si]1(C)COc2c(-c3ccnc(N)c3)c(-c3ccc(F)cc3)nn2C1` [[II-4], 4-[7-(4-fluorophenyl)-3,3-dimethyl-3,4-dihydro-2H-pyrazolo[5,1-b][1,3,5]oxazasilin-8-yl]pyridin-2-amine], under setting [1], the chromatographic logP worked out at 1.66.
Regarding `Nc1cc(-c2c(-c3ccccc3)nn3cccnc23)ccn1` [[II-a-1], 4-(2-Phenylpyrazolo[1,5-a]pyrimidin-3-yl)pyridin-2-amine], the chromatographic logP runs as follows: under setting [1], 0.98; under setting [2], 0.98.
As to `Nc1cc(-c2c(-c3ccccc3)nn3c2NCCC3)ccn1` [[II-b-1], 4-(2-Phenyl-4,5,6,7-tetrahydropyrazolo[1,5-a]pyrimidin-3-yl)pyridin-2-amine], the chromatographic logP reads like this: under setting [1], 1.05; under setting [2], 1.05.
As for `CC1CCOc2c(B3OC(C)(C)C(C)(C)O3)c(-c3ccc(F)cc3)nn21` (stereo not drawn) [[III-1], 2-(4-fluorophenyl)-7-methyl-3-(4,4,5,5-tetramethyl-1,3,2-dioxaborolan-2-yl)-6,7-dihydro-5H-pyrazolo[5,1-b][1,3]oxazine], under setting [2], the chromatographic logP came out at 3.5.
`Brc1c(-c2ccccc2)nn2c1OCCC2` [[IV-1], 3-bromo-2-phenyl-6,7-dihydro-5H-pyrazolo[5,1-b][1,3]oxazine]: the chromatographic logP by setting is: under setting [3], 2.66; under setting [2], 2.66.
On to `Fc1ccc(-c2nn3c(c2Br)OCCC3)cc1` [[IV-2], 3-bromo-2-(4-fluorophenyl)-6,7-dihydro-5H-pyrazolo[5,1-b][1,3]oxazine], for which the chromatographic logP reads like this: under setting [3], 2.86; under setting [2], 2.86.
Turning to `Fc1ccc(-c2nn3c(c2Br)OCCC3)c(F)c1` [[IV-3], 3-bromo-2-(2,4-difluorophenyl)-6,7-dihydro-5H-pyrazolo[5,1-b][1,3]oxazine], the chromatographic logP under setting [3] worked out at 2.7 and the chromatographic logP under setting [2] was 2.7.
In the case of `Fc1ccc(-c2nn3c(c2Br)OCC3)cc1` [[IV-4], 7-bromo-6-(4-fluorophenyl)-2,3-dihydropyrazolo[5,1-b][1,3]oxazole], the chromatographic logP by setting is: under setting [3], 2.69; under setting [2], 2.69.
Consider `C[Si]1(C)COc2c(Br)c(-c3ccc(F)cc3)nn2C1` [[IV-5], 8-bromo-7-(4-fluorophenyl)-3,3-dimethyl-3,4-dihydro-2H-pyrazolo[5,1-b][1,3,5]oxazasiline], for which the chromatographic logP under setting [3] stood at 3.83 and the chromatographic logP under setting [2] stood at 3.83.
Consider `CC1CCOc2c(Br)c(-c3ccc(F)cc3)nn21` (stereo not drawn) [[IV-6], 3-bromo-2-(4-fluorophenyl)-7-methyl-6,7-dihydro-5H-pyrazolo[5,1-b][1,3]oxazine], for which the chromatographic logP under setting [3] was 3.36 and the chromatographic logP under setting [2] was found to be 3.36.
As to `Fc1ccc(-c2nn3c(c2Br)OCC(F)(F)C3)cc1` [[IV-7], 3-bromo-6,6-difluoro-2-(4-fluorophenyl)-6,7-dihydro-5H-pyrazolo[5,1-b][1,3]oxazine], the chromatographic logP was 3.3 under setting [3] and 3.3 under setting [2].
For the compound `CC1Oc2c(Br)c(-c3ccc(F)cc3)nn2C1C` (stereo not drawn) [[IV-8], 7-bromo-6-(4-fluorophenyl)-2,3-dimethyl-2,3-dihydropyrazolo[5,1-b][1,3]oxazole], the chromatographic logP came out at 3.39 under setting [3]; 3.39 (pH 2.7, major isomer of the diastereoisomer mixture, read-out: Log P (pH 2.7), major isomer); 3.46 (pH 2.7, minor isomer of the diastereoisomer mixture, read-out: Log P (pH 2.7), minor isomer).
As to `CC1(C)COc2c(Br)c(-c3ccc(F)cc3)nn2C1` [[IV-10], 3-bromo-2-(4-fluorophenyl)-6,6-dimethyl-6,7-dihydro-5H-pyrazolo[5,1-b][1,3]oxazine], the chromatographic logP worked out at 3.63 under setting [3] and 3.63 under setting [2].
Regarding `CC1(C#N)COc2c(Br)c(-c3ccc(F)cc3)nn2C1` (stereo not drawn) [[IV-11], 3-bromo-2-(4-fluorophenyl)-6-methyl-6,7-dihydro-5H-pyrazolo[5,1-b][1,3]oxazine-6-carbonitrile], the chromatographic logP by setting is: under setting [3], 2.94; under setting [2], 2.94.
Regarding `C[Si]1(C)COc2c(Br)c(-c3cccs3)nn2C1` [[IV-12], 8-bromo-3,3-dimethyl-7-(2-thienyl)-3,4-dihydro-2H-pyrazolo[5,1-b][1,3,5]oxazasiline], the chromatographic logP is, setting by setting: under setting [3], 3.58; under setting [2], 3.58.
For the compound `Cc1coc2c(Br)c(-c3ccc(F)cc3)nn12` [[IV-a-1], 7-bromo-6-(4-fluorophenyl)-3-methylpyrazolo[5,1-b][1,3]oxazole], the chromatographic logP runs as follows: under setting [3], 3.56; under setting [2], 3.56.
As to `CCc1coc2c(Br)c(-c3ccc(F)cc3)nn12` [[IV-a-2], 7-bromo-3-ethyl-6-(4-fluorophenyl)pyrazolo[5,1-b][1,3]oxazole], the chromatographic logP under setting [3] was 4.18 and the chromatographic logP under setting [2] worked out at 4.18.
For the compound `Fc1ccc(-c2nn3ccoc3c2Br)cc1` [[IV-a-3], 7-bromo-6-(4-fluorophenyl)pyrazolo[5,1-b][1,3]oxazole], the chromatographic logP runs as follows: under setting [3], 3.07; under setting [2], 3.07.
Turning to `Brc1c(-c2ccccc2)nn2ccoc12` [[IV-a-4], 7-bromo-6-phenylpyrazolo[5,1-b][1,3]oxazole], the chromatographic logP came out at 2.91 under setting [3] and 2.91 under setting [2].
As to `c1ccc(-c2cc3n(n2)CCCO3)cc1` [[VI-1], 2-phenyl-6,7-dihydro-5H-pyrazolo[5,1-b][1,3]oxazine], the chromatographic logP under setting [4] came out at 2.04 and the chromatographic logP under setting [2] was 2.04.
As for `Fc1ccc(-c2cc3n(n2)CCCO3)cc1` [[VI-2], 2-(4-fluorophenyl)-6,7-dihydro-5H-pyrazolo[5,1-b][1,3]oxazine], the chromatographic logP reads like this: under setting [4], 2.18; under setting [2], 2.18.
For the compound `Fc1ccc(-c2cc3n(n2)CCCO3)c(F)c1` [[VI-3], 2-(2,4-difluorophenyl)-6,7-dihydro-5H-pyrazolo[5,1-b][1,3]oxazine], the chromatographic logP turned out to be 2.38 under setting [4] and 2.38 under setting [2].
As for `CC1CCOc2cc(-c3ccc(F)cc3)nn21` (stereo not drawn) [[VI-4], 2-(4-fluorophenyl)-7-methyl-6,7-dihydro-5H-pyrazolo[5,1-b][1,3]oxazine], the chromatographic logP under setting [4] amounted to 2.65 and the chromatographic logP under setting [2] came to 2.65.
`C[Si]1(C)COc2cc(-c3ccc(F)cc3)nn2C1` [[VI-5], 7-(4-fluorophenyl)-3,3-dimethyl-3,4-dihydro-2H-pyrazolo[5,1-b][1,3,5]oxazasiline]: the chromatographic logP under setting [4] turned out to be 3.11 and the chromatographic logP under setting [2] worked out at 3.11.
For `Fc1ccc(-c2cc3n(n2)CCS3)cc1` [[VI-6], 6-(4-fluorophenyl)-2,3-dihydropyrazolo[5,1-b][1,3]thiazole], the chromatographic logP is 2.53 under setting [4] and 2.53 under setting [2].
On to `CC1(C)COc2cc(-c3ccc(F)cc3)nn2C1` [[VI-10], 2-(4-fluorophenyl)-6,6-dimethyl-6,7-dihydro-5H-pyrazolo[5,1-b][1,3]oxazine], for which the chromatographic logP amounted to 2.96 under setting [4] and 2.96 under setting [2].
Take `CC1(C#N)COc2cc(-c3ccc(F)cc3)nn2C1` (stereo not drawn) [[VI-11], 2-(4-fluorophenyl)-6-methyl-6,7-dihydro-5H-pyrazolo[5,1-b][1,3]oxazine-6-carbonitrile]: the chromatographic logP under setting [4] came out at 2.39 and the chromatographic logP under setting [2] was 2.39.
`O=c1cc(-c2ccc(F)cc2)[nH][nH]1` [[VII-2], 3-(4-fluorophenyl)-1H-pyrazol-5-ol]: under setting [2], the chromatographic logP amounted to 1.11.
With `Oc1cc(-c2ccc(F)cc2F)n[nH]1` [[VII-3], 3-(2,4-difluorophenyl)-1H-pyrazol-5-ol], under setting [2], the chromatographic logP was determined as 1.25.
Consider `Brc1c(-c2ccccc2)nn2cccnc12` [[XXXVII-1], 3-Bromo-2-phenylpyrazolo[1,5-a]pyrimidine], for which the chromatographic logP worked out at 2.63 under setting [3] and 2.63 under setting [2].
Consider `Fc1ccc(-c2nn3cccnc3c2Br)cc1` [[XXXVII-2], 3-Bromo-2-(4-fluorophenyl)pyrazolo[1,5-a]pyrimidine], for which the chromatographic logP runs as follows: under setting [3], 2.8; under setting [2], 2.8.

These data come from patent US9023844B2, “Heterocyclylpyri (mi) dinylpyrazole as fungicidals” (Bayer Intellectual Property GmbH, priority 2011, dated 2015).
